Laboratory results from patent US20220056037A1 (SPV THERAPEUTICS INC., priority 2018, published 2022).
pIC50: −log10 of the molar value.

Columns and labels:
Test in all cases: 2D cell proliferation assay (CellTiter-Blue)
Assay type in all cases: cell-based
LEXFAM MV4-11 = settings: Homo sapiens, 72 h; cell line LEXFAM MV4-11; three days of treatment; read-out: IC (abs. IC50)
Description: (§1) Viability of the cells was analyzed by using the CellTiter-Blue® Cell Viability Assay (Promega), and was performed according to manufacturer's instructions. Briefly, cells were harvested from exponential phase cultures (Chapter 6.6), counted and plated in 96-well flat-bottom microtiter plates at a cell density of 4,000-60,000 cells/well in a volume of 140 μl per well. After a 24 hours recovery period, 10 μL cell culture medium (six control wells/plate) or culture medium with test compound were added (Chapter 6.2). The compounds were applied at five concentrations in full-log increments up to 100 μM in duplicate. Cultures were incubated at 37° C. and 5% CO2 in a humidified atmosphere for another three days. After three days of treatment, 20 μl/well CellTiter-Blue® reagent was added. Following incubation with CellTiter-Blue® reagent for up to four hours, fluorescence (FU) was measured by using the Enspire Multimode Plate Reader (excitation λ=570 nm, emission λ=600 nm). For calculations, the mean values of duplicate/sextuplicate (untreated control) data were used.
(§2) Drug effects were expressed in terms of the percentage of the fluorescence signal, obtained by comparison of the mean signal in the treated wells with the mean signal of the untreated controls (expressed by the test-versus-control value, T/C-value [%]):
(§3) IC values are reported as relative IC50 values and absolute IC50 and IC70 values. […] The absolute IC70 value gives the concentration of the test compound that achieves T/C=30%. The relative IC50 value is the concentration of test compound that gives a response half way between the top and bottom plateau of the sigmoidal concentration-response curve (inflection point of the curve). Calculation was done by 4parameter non-linear curve fit (Oncotest Data Warehouse Software).
(§4) If an IC50 or IC70 value could not be determined within the examined dose range (because a compound was either too active or lacked activity), the lowest or highest concentration studied was used for calculation of the geometric mean value.
(§5) The overall potency of a compound was determined by the geometric mean IC50/IC70 values of all individual IC50/IC70 values. In the heatmap representation of IC50 and IC70 values, the distribution of the IC50 or IC70 values obtained for a test compound in the individual cell lines is given in relation to the geometric mean […] or IC70 value, obtained over all PDX models tested. The individual IC values range from 1/32-fold geometric mean IC (corresponding to very potent compound activity or high tumor sensitivity) to 32-fold geometric mean IC (corresponding to lack of compound activity or tumor resistance). The heatmap presentation, therefore, represents an antiproliferative “fingerprint” profile of a test compound.

MEXF M14 = settings: 72 h; cell line MEXF M14; three days of treatment; read-out: IC (abs. IC50)
Description: as §1, §2, §3, §4, §5

LEXFCL MEC-1 = settings: Homo sapiens, MEC1, 72 h; cell line LEXFCL MEC-1; three days of treatment; read-out: IC (abs. IC50)
Description: as §1, §2, §3, §4, §5

MEXF A2058 = settings: Homo sapiens, 72 h; cell line MEXF A2058; three days of treatment; read-out: IC (abs. IC50)
Description: as §1, §2, §3, §4, §5

LIXAH SNU-398 = settings: Homo sapiens, 72 h; cell line LIXAH SNU-398; three days of treatment; read-out: IC (abs. IC50)
Description: as §1, §2, §3, §4, §5

MEXF WM-266-4 = settings: Homo sapiens, 72 h; cell line MEXF WM-266-4; three days of treatment; read-out: IC (abs. IC50)
Description: as §1, §2, §3, §4, §5

LIXAH HLE = settings: 72 h; cell line LIXAH HLE; three days of treatment; read-out: IC (abs. IC50)
Description: as §1, §2, §3, §4, §5

CXF COLO 205 = settings: Homo sapiens, 72 h; cell line CXF COLO 205; three days of treatment; read-out: IC (abs. IC50)
Description: as §1, §2, §3, §4, §5

CXF HT-29 = settings: Homo sapiens, 72 h; cell line CXF HT-29; three days of treatment; read-out: IC (abs. IC50)
Description: as §1, §2, §3, §4, §5

MAXFHER SK-BR-3 = settings: Homo sapiens, 72 h; cell line MAXFHER SK-BR-3; three days of treatment; read-out: IC (abs. IC50)
Description: as §1, §2, §3, §4, §5

CEXF HeLa = settings: Homo sapiens, 72 h; cell line CEXF HeLa; three days of treatment; read-out: IC (abs. IC50)
Description: as §1, §2, §3, §4, §5

PRXF DU-145 = settings: Homo sapiens, 72 h; cell line PRXF DU-145; three days of treatment; read-out: IC (abs. IC50)
Description: as §1, §2, §3, §4, §5

CNXF U-87 MG = settings: Homo sapiens, 72 h; cell line CNXF U-87 MG; three days of treatment; read-out: IC (abs. IC50)
Description: as §1, §2, §3, §4, §5

LXFL NCI-H1299 = settings: Homo sapiens, 72 h; cell line LXFL NCI-H1299; three days of treatment; read-out: IC (abs. IC50)
Description: as §1, §2, §3, §4, §5

MEXF MDA-MB-435 = settings: Homo sapiens, 72 h; cell line MEXF MDA-MB-435; three days of treatment; read-out: IC (abs. IC50)
Description: as §1, §2, §3, §4, §5

MEXF A-375 = settings: Homo sapiens, 72 h; cell line MEXF A-375; three days of treatment; read-out: IC (abs. IC50)
Description: as §1, §2, §3, §4, §5

MAXFTN ZR-75-1 (ER +) = settings: Homo sapiens, 72 h; cell line MAXFTN ZR-75-1 (ER +); three days of treatment; read-out: IC (abs. IC50)
Description: as §1, §2, §3, §4, §5

PAXF MIA-Pa-Ca-2 = settings: Homo sapiens, MIA PaCa-2, 72 h; cell line PAXF MIA-Pa-Ca-2; three days of treatment; read-out: IC (abs. IC50)
Description: as §1, §2, §3, §4, §5

How did the pIC50 (LEXFAM MV4-11) turn out when `CN1CCN(c2ccc(Nc3ncc4cc(C(=O)N(C)C)n(C56CC(C5)C6)c4n3)cc2)CC1` [SPV113] was run?
Its pIC50 is no less than 8.00.

And the pIC50 (MEXF M14)?
Its pIC50 is 5.99.

And the pIC50 (LEXFCL MEC-1)?
The pIC50 was no less than 8.00.

What about the pIC50 (MEXF A2058) of the same compound?
The pIC50 was 5.82.

And the pIC50 (LIXAH SNU-398)?
Its pIC50 is 6.83.

What about the pIC50 (MEXF WM-266-4) of the same compound?
The pIC50 was 5.48.

What about the pIC50 (LIXAH HLE) of the same compound?
The pIC50 was 6.64.

And the pIC50 (CXF COLO 205)?
The pIC50 was 6.83.

What about the pIC50 (CXF HT-29) of the same compound?
The pIC50 was 6.36.

And the pIC50 (MAXFHER SK-BR-3)?
The pIC50 was 5.69.

What about the pIC50 (CEXF HeLa) of the same compound?
The pIC50 was 6.48.

And the pIC50 (PRXF DU-145)?
The pIC50 was 6.60.

And the pIC50 (CNXF U-87 MG)?
The pIC50 was 4.00.

What about the pIC50 (LXFL NCI-H1299) of the same compound?
Its pIC50 is 5.79.

And the pIC50 (MEXF MDA-MB-435)?
Its pIC50 is 6.53.

What about the pIC50 (MEXF A-375) of the same compound?
The pIC50 was 7.00.

And the pIC50 (MAXFTN ZR-75-1 (ER +))?
The pIC50 was 4.90.

What about the pIC50 (PAXF MIA-Pa-Ca-2) of the same compound?
Its pIC50 is 6.98.
